Assay results published in ChEMBL document CHEMBL4622850, “Discovery and optimization of new oxadiazole substituted thiazole RORγt inverse agonists through a bioisosteric amide replacement approach” (Bioorg Med Chem Lett, 2020).
≈ marks a conversion by molar mass, not a printed value.

Assays:
[1] = Plasma concentration in mouse at 30 mg/kg, po measured after 4 hrs; assay type: ADME, organism-based
[2] = Solubility of compound by pH 7; assay type: physicochemical; conditions: buffer
[3] = Protein binding in human plasma; assay type: ADME, cell-free; conditions: read-out: PPB (converted)
[4] = molecular target: T1, Nuclear receptor subfamily 1 group I member 2 (Homo sapiens, UniProt O75469); experiment: Activation of PXR (unknown origin) at 5 uM; assay type: ADME
T1 sequence (O75469 whole entry): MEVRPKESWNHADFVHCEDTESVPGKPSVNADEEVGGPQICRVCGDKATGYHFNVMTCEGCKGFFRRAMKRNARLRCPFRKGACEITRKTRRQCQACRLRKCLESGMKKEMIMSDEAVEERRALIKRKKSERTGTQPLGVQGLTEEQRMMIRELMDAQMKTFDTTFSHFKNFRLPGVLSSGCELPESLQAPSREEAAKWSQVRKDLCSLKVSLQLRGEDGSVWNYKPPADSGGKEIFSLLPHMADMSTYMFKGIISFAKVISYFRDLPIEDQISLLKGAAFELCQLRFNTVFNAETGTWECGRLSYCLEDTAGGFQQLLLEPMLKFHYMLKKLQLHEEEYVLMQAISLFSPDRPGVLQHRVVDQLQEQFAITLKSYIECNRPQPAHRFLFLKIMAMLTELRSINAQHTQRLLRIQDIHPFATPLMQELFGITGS

[5] = Volume of distribution in rat at 1 mg/kg, iv; assay type: ADME, organism-based; conditions: in vivo
[6] = Cmax in rat at 300 mg/kg, po measured on day 1; assay type: ADME, organism-based; design: dose 300 mg/kg, route oral; conditions: in vivo
[7] = molecular target: T2, Nuclear receptor ROR-gamma (Mus musculus) (UniProt P51450); experiment: In vivo inhibition of RORgammat in mouse assessed as reduction in IL-17a production at 30 mg/kg, po measured after 2 hrs relative to control; assay type: functional, organism-based
T2 sequence (whole entry): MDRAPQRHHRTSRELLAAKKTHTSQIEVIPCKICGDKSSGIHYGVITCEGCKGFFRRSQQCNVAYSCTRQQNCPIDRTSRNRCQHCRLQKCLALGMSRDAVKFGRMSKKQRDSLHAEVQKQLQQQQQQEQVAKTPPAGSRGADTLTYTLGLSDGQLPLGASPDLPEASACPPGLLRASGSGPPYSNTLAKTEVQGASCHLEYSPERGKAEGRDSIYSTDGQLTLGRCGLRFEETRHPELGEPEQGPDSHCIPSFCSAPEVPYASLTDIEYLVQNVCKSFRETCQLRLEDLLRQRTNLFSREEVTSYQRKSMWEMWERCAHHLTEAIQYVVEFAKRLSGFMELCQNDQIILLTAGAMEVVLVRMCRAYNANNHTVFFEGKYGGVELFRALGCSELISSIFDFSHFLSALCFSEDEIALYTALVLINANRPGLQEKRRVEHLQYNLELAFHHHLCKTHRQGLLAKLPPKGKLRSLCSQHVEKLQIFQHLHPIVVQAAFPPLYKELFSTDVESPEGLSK

[8] = AUC in rat at 300 mg/kg, po measured on day 5; assay type: ADME, organism-based; conditions: in vivo
[9] = Cmax in rat at 300 mg/kg, po measured on day 5; assay type: ADME, organism-based; design: dose 300 mg/kg, route oral; conditions: in vivo
[10] = Plasma concentration in mouse at 30 mg/kg, po measured after 1 hr; assay type: ADME, organism-based
[11] = molecular target: T2, Nuclear receptor ROR-gamma (Mus musculus); experiment: In vivo inhibition of RORgammat in mouse assessed as reduction in IL-17a production at 30 mg/kg, po measured after 1 hr relative to control; assay type: functional, organism-based
Cytochrome P450 2C8 = molecular target: T3, Cytochrome P450 2C8 (Homo sapiens, UniProt P10632); experiment: Inhibition of CYP2C8 (unknown origin); assay type: ADME
T3 sequence (P10632 whole entry): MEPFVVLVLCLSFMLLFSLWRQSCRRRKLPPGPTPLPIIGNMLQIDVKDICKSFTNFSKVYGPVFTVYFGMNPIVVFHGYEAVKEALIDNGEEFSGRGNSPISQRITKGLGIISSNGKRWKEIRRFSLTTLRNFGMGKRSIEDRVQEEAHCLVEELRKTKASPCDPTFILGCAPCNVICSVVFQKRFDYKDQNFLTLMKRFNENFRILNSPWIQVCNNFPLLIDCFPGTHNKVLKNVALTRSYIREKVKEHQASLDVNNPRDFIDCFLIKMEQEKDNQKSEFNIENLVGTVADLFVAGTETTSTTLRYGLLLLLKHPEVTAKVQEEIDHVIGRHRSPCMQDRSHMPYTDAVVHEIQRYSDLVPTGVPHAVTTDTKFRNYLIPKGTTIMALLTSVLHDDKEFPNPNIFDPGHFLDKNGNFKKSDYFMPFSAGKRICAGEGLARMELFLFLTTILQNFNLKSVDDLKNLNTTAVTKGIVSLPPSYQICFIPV

[12] = AUC in rat at 5 mg/kg, po; assay type: ADME, organism-based; conditions: in vivo
[13] = Plasma concentration in mouse at 30 mg/kg, po measured after 7 hrs; assay type: ADME, organism-based
[14] = molecular target: T2, Nuclear receptor ROR-gamma (Mus musculus); experiment: In vivo inhibition of RORgammat in mouse assessed as reduction in IL-17a production at 30 mg/kg, po measured after 24 hrs relative to control; assay type: functional, organism-based
[15] = AUC in rat at 300 mg/kg, po measured on day 1; assay type: ADME, organism-based; conditions: in vivo
[16] = molecular target: T2, Nuclear receptor ROR-gamma (Mus musculus); experiment: In vivo inhibition of RORgammat in mouse assessed as reduction in IL-17a production at 30 mg/kg, po measured after 4 hrs relative to control; assay type: functional, organism-based
[17] = molecular target: T4, Nuclear receptor ROR-gamma (Mus musculus, UniProt P51450); experiment: Inverse agonist activity at RORgammat in mouse whole blood assessed as reduction in IL-17a production; assay type: tissue-based
T4 sequence (P51450 whole entry): T2 sequence (whole entry)

[18] = molecular target: T2, Nuclear receptor ROR-gamma (Mus musculus); experiment: In vivo inhibition of RORgammat in mouse assessed as reduction in IL-17a production at 30 mg/kg, po measured after 7 hrs relative to control; assay type: functional, organism-based
Cytochrome P450 2C9 = Cytochrome P450 2C9 (Homo sapiens, UniProt P11712); experiment: Inhibition of CYP2C9 (unknown origin); assay type: ADME
Chain of Cytochrome P450 2C9 (P11712 whole entry): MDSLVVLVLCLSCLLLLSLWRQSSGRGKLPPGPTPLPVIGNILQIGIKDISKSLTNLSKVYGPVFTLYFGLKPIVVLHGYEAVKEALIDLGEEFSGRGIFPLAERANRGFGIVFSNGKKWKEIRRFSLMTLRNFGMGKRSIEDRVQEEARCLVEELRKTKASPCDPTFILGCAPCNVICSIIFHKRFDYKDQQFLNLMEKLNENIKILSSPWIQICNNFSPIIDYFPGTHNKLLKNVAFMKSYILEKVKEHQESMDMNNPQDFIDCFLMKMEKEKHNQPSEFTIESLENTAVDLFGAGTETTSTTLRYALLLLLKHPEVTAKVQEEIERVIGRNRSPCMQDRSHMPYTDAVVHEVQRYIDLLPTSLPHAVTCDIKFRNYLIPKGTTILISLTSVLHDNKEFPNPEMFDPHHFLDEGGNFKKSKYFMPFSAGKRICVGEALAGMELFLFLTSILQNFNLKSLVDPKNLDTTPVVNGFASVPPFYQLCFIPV

CYP3A4 [19] = molecular target: T5, CYP3A4 (Homo sapiens, UniProt P08684); experiment: Inhibition of CYP3A4 (unknown origin) at 1 uM; assay type: ADME
T5 sequence (P08684 whole entry): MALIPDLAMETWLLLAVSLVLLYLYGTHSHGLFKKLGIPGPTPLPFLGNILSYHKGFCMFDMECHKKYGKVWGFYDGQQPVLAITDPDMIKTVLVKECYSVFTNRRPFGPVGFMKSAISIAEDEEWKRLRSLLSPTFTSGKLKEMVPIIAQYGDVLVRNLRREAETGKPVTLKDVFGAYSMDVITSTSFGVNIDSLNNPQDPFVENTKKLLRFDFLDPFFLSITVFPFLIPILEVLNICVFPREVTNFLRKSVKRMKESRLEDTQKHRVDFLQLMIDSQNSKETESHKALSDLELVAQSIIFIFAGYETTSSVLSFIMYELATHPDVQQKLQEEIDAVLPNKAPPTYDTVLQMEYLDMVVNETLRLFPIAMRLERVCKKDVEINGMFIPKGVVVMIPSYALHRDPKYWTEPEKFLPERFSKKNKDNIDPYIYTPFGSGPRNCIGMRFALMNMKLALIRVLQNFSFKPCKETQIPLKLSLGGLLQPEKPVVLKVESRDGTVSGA

[20] = Plasma concentration in mouse at 30 mg/kg, po measured after 2 hrs; assay type: ADME, organism-based
[21] = molecular target: T2, Nuclear receptor ROR-gamma (Mus musculus); experiment: In vivo inhibition of RORgammat in mouse assessed as reduction in IL-17a production at 30 mg/kg, po measured after 0.5 hrs relative to control; assay type: functional, organism-based
[22] = Plasma concentration in mouse at 30 mg/kg, po measured after 0.5 hrs; assay type: ADME, organism-based
[23] = Cmax in rat at 5 mg/kg, po; assay type: ADME, organism-based; design: dose 5 mg/kg, route oral; conditions: in vivo
[24] = Half life in rat at 1 mg/kg, iv; assay type: ADME, organism-based; conditions: in vivo
[25] = Clearance in rat at 1 mg/kg, iv; assay type: ADME, organism-based; conditions: in vivo
[26] = Plasma concentration in mouse at 30 mg/kg, po measured after 24 hrs; assay type: ADME, organism-based
[27] = Metabolic stability in rat liver microsomes assessed as half life; assay type: ADME, Microsome
[28] = Solubility of compound by pH 2; assay type: physicochemical; conditions: buffer
CYP3A4 [29] = molecular target: T5, CYP3A4; experiment: Inhibition of CYP3A4 (unknown origin) at 10 uM; assay type: ADME
[30] = Protein binding in mouse plasma; assay type: ADME, cell-free; conditions: read-out: PPB (converted)
[31] = molecular target: T1, Nuclear receptor subfamily 1 group I member 2; experiment: Activation of PXR (unknown origin) at 1 uM; assay type: ADME
[32] = Metabolic stability in human liver microsomes assessed as half life; assay type: ADME, Microsome
[33] = Oral bioavailability in rat at 1 mg/kg; assay type: ADME, organism-based; conditions: in vivo
[34] = AUC in rat at 1000 mg/kg, po measured on day 5; assay type: ADME, organism-based; conditions: in vivo
[35] = Protein binding in rat plasma; assay type: ADME, cell-free; conditions: read-out: PPB (converted)
[36] = Cmax in rat at 1000 mg/kg, po measured on day 5; assay type: ADME, organism-based; design: dose 1000 mg/kg, route oral; conditions: in vivo
Cytochrome P450 2C19 = Cytochrome P450 2C19 (Homo sapiens, UniProt P33261); experiment: Inhibition of CYP2C19 (unknown origin); assay type: ADME
Chain of Cytochrome P450 2C19 (P33261 whole entry): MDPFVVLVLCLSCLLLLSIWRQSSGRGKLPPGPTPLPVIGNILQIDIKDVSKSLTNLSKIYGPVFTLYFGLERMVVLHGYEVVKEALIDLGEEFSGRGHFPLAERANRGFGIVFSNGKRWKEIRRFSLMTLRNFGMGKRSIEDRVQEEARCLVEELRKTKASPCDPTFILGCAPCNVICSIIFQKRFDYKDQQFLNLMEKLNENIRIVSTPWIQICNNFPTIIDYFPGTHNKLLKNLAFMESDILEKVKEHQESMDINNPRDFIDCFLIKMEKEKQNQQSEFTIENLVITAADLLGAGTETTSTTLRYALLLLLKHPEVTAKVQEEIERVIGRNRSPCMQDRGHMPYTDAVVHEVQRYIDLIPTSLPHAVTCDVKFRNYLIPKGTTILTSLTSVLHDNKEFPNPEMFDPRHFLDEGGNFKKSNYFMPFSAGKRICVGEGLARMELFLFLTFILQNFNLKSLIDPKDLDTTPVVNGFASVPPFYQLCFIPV

[37] = Cmax in rat at 1000 mg/kg, po measured on day 1; assay type: ADME, organism-based; design: dose 1000 mg/kg, route oral; conditions: in vivo
[38] = Plasma concentration in mouse at 3 mg/kg, po measured after 1 hr; assay type: ADME, organism-based
[39] = AUC in rat at 1000 mg/kg, po measured on day 1; assay type: ADME, organism-based; conditions: in vivo
[40] = molecular target: T2, Nuclear receptor ROR-gamma (Mus musculus); experiment: In vivo inhibition of RORgammat in mouse assessed as reduction in IL-17a production at 3 mg/kg, po measured after 1 hr relative to control; assay type: functional, organism-based

solubility [2] [µM]	fraction unbound [3]	Vd [5] [L/kg]	concentration at 1 h [10] [µM]	inhibition [11] [%]	AUC [12] [ng·h/mL]	IC50 [17] [nM]	inhibition at 1 µM (CYP3A4 [19]) [%]	Cmax [23] [nM]	half-life [24] [min]	clearance [25] [mL/min/kg]	half-life [27] [min]	solubility [28] [µM]	inhibition at 10 µM (CYP3A4 [29]) [%]	fraction unbound [30]	Activity [31] [%]	half-life [32] [min]	bioavailability [33] [%]	SMILES	other results
355 (≈ 208 µg/mL)	0.003	1.7	52.1	68	32700	2500	-1	3800	456	2.9	> 180	< 4	3.4	0.002	8.9	> 180	112	CC[C@H](NS(=O)(=O)c1ccc(-c2sc(CC(C)(C)C(=O)O)nc2CC2CCC2)c(C(F)F)c1F)C(F)(F)F	concentration at 4 h [1]: 39.7 µM; Activity [4]: 21%; Cmax [6]: 303 µg/mL; inhibition [7]: 75%; AUC [8]: 1790 µg·h/mL; Cmax [9]: 151 µg/mL; IC50 (Cytochrome P450 2C8): 1800 nM; concentration at 7 h [13]: 43.1 µM; inhibition [14]: 39%; AUC [15]: 4710 µg·h/mL; inhibition [16]: 61%; inhibition [18]: 46%; IC50 (Cytochrome P450 2C9): 6.3 µM; concentration at 2 h [20]: 46.4 µM; inhibition [21]: 73%; concentration at 0.5 h [22]: 61.4 µM; concentration at 24 h [26]: 2200 nM
35 (≈ 23.7 µg/mL)	0.077	7.7	10.2	84	1570	196	8.1	230	258	25	148	18 (≈ 12.2 µg/mL)	26	0.058	8.5	> 180	47	C[C@H](NS(=O)(=O)c1ccc(-c2sc(-c3nnc(C(C)(C)O)o3)nc2C(=O)N2CCC(F)(F)CC2)c(Cl)c1Cl)C(F)(F)F	AUC [34]: 51000 ng·h/mL; fraction unbound [35]: 0.095; Cmax [36]: 3160 ng/mL; IC50 (Cytochrome P450 2C19): 6.7 µM; Cmax [37]: 24500 ng/mL; concentration at 1 h [38]: 490 nM; AUC [39]: 274 µg·h/mL; inhibition [40]: 69%
